Experimental findings from ChEMBL document CHEMBL5143519, “Exploring disordered loops in DprE1 provides a functional site to combat drug-resistance in Mycobacterium strains” (Eur J Med Chem, 2022) are described below.

pIC50: −log10 of the molar value. Values after ≈ are worked out from the molar mass of the structure shown.

Assay [1] concerns Mycobacterium tuberculosis. Description: Antimycobacterial activity against rifampin resistant Mycobacterium tuberculosis H37Rv assessed as inhibition of bacterial growth incubated for 7 days by microplate alamar blue assay. Type of assay: functional. To be noted: 168 h, time 7 day.
Assay [2] has as its system Mycobacterium tuberculosis. Briefly: Antimycobacterial activity against Mycobacterium tuberculosis DprE1 C387S assessed as inhibition of bacterial growth incubated for 7 days by microplate alamar blue assay. Type of assay: functional. As to conditions: time 7 day.
Assay [3] deals with Mycobacterium tuberculosis. Briefly: Antimycobacterial activity against multidrug-resistant Mycobacterium tuberculosis clinical isolate HD1 assessed as inhibition of bacterial growth incubated for 7 days by microplate alamar blue assay. The assay is classed as functional. To be noted: Clinical isolate HD1, 168 h, time 7 day.
The test system of assay [4] is Mycobacterium tuberculosis. Description: Antimycobacterial activity against multidrug-resistant Mycobacterium tuberculosis clinical isolate HD2 assessed as inhibition of bacterial growth incubated for 7 days by microplate alamar blue assay. To be noted: Clinical isolate HD2, 168 h, time 7 day. Type of assay: functional.
Assay [5] relates to Mycobacterium tuberculosis. Description: Antimycobacterial activity against multidrug-resistant Mycobacterium tuberculosis clinical isolate HD3 assessed as inhibition of bacterial growth incubated for 7 days by microplate alamar blue assay. Type of assay: functional. As to conditions: Clinical isolate HD3, 168 h, time 7 day.
The subject of assay [6] is Mycobacterium tuberculosis. Briefly: Antimycobacterial activity against multidrug-resistant Mycobacterium tuberculosis clinical isolate HD4 assessed as inhibition of bacterial growth incubated for 7 days by microplate alamar blue assay. The assay is classed as functional. To be noted: Clinical isolate HD4, 168 h, time 7 day.
In assay [7] the test system is Mycobacterium tuberculosis. Description: Antimycobacterial activity against multidrug-resistant Mycobacterium tuberculosis clinical isolate HD5 assessed as inhibition of bacterial growth incubated for 7 days by microplate alamar blue assay. Type of assay: functional. As to conditions: Clinical isolate HD5, 168 h, time 7 day.
Assay [8] is described as follows: Inhibition of Mycobacterium tuberculosis DprE1 Y314A mutant expressed in Escherichia coli BL21 DE3 assessed as formation of resorufin using FPR as substrate incubated for 10 mins by Amplex Red dye microplate assay.
A short description of assay [9]: Inhibition of Mycobacterium tuberculosis DprE1 C387A mutant expressed in Escherichia coli BL21 DE3 assessed as formation of resorufin using FPR as substrate incubated for 10 mins by Amplex Red dye microplate assay.
Assay [10] is described as follows: Inhibition of Mycobacterium tuberculosis DprE1 C387S mutant expressed in Escherichia coli BL21 DE3 assessed as formation of resorufin using FPR as substrate incubated for 10 mins by Amplex Red dye microplate assay.
The nature of assay [11]: Inhibition of Mycobacterium tuberculosis DprE1 K418A mutant expressed in Escherichia coli BL21 DE3 assessed as formation of resorufin using FPR as substrate incubated for 10 mins by Amplex Red dye microplate assay.
The subject of assay [12] is Mycobacterium tuberculosis. Description: Antimycobacterial activity against rifampin resistant Mycobacterium tuberculosis H37Rv assessed as reduction in bacterial colony forming units at 20 times MIC concentration measured after 21 days by time kill assay. Type of assay: functional. As to conditions: time 21 day.

Take `CO[C@H]1/C=C/O[C@@]2(C)Oc3c(C)c(O)c4c(O)c(c(/C=N/N5CCN(C)CC5)c(O)c4c3C2=O)NC(=O)/C(C)=C\C=C\[C@H](C)[C@H](O)[C@@H](C)[C@@H](O)[C@@H](C)[C@H](OC(C)=O)[C@@H]1C` [RIFAMPIN]: the MIC was found to be 1.13 µM (≈ 0.93 µg/mL) in assay [1]; 0.35 µM (≈ 0.288 µg/mL) in assay [2]; 1.9 µM (≈ 1.56 µg/mL) in assay [3]; 3.82 µM (≈ 3.14 µg/mL) in [4]; 0.95 µM (≈ 0.782 µg/mL) in assay [5]; 1.9 µM (≈ 1.56 µg/mL) in assay [6]. Also, the MIC in [7] was found to be 3.82 µM (≈ 3.14 µg/mL).
`COc1nc2ccc(Br)cc2cc1[C@@H](c1ccccc1)[C@@](O)(CCN(C)C)c1cccc2ccccc12` [BEDAQUILINE]: the minimum inhibitory concentration (MIC) in assay [3] came to 0.07 µM (≈ 0.0389 µg/mL); in assay [4], 0.29 µM (≈ 0.161 µg/mL); in assay [5], 0.14 µM (≈ 0.0778 µg/mL); in assay [6], 0.58 µM (≈ 0.322 µg/mL); in [7], 0.07 µM (≈ 0.0389 µg/mL).
Consider `O=C(NC(=O)c1ccsc1NC(=O)c1nc2ccccc2s1)OCC1CC1`, for which the pIC50 was 7.54 in [8], 7.16 in [9], 7.23 in assay [10] and 5.05 in assay [11]. Besides, the MIC in [1] is 1.57 µM (≈ 0.63 µg/mL); in assay [2], 1.57 µM (≈ 0.63 µg/mL); in assay [3] it was 1.94 µM (≈ 0.779 µg/mL); in [4], 3.88 µM (≈ 1.56 µg/mL); in [5], 0.97 µM (≈ 0.389 µg/mL); in [6], 1.94 µM (≈ 0.779 µg/mL). Also, the MIC in assay [7] was found to be 1.94 µM (≈ 0.779 µg/mL). In assay [12], the Activity is reported as 3.5 log10CFU/ml.
For `CCOC(=O)NC(=O)c1ccsc1NC(=O)c1nc2ccccc2s1`, the pIC50 is 6.96 in [8], 4.36 in assay [9], 5.24 in [10] and 4.19 in assay [11]. Besides, the MIC in assay [1] came to 3.32 µM (≈ 1.25 µg/mL); in [2], 6.65 µM (≈ 2.5 µg/mL); in [3], 4.15 µM (≈ 1.56 µg/mL); in assay [4], 8.33 µM (≈ 3.13 µg/mL); in assay [5] it was 2.07 µM (≈ 0.777 µg/mL); in [6] it was 8.33 µM (≈ 3.13 µg/mL). Further, in assay [7], the MIC came to 8.33 µM (≈ 3.13 µg/mL). For the same compound, the Activity in assay [12] amounted to 3.5 log10CFU/ml.
Regarding `CC(=O)c1ccc(C(=O)Nc2sccc2C(=O)NC(=O)OCC2CC2)cc1`, the values for the pIC50 in assay [9] and in [10] were 5.48 and 5.40, respectively.
As to `O=C(NC(=O)c1ccsc1NC(=O)c1nc2ccccc2s1)OCC1CCC1`, the MIC came out at 6.01 µM (≈ 2.5 µg/mL) in assay [1]; 1.88 µM (≈ 0.781 µg/mL) in assay [3]; 3.76 µM (≈ 1.56 µg/mL) in assay [4]; 1.88 µM (≈ 0.781 µg/mL) in assay [5]; 3.76 µM (≈ 1.56 µg/mL) in assay [6]; 3.76 µM (≈ 1.56 µg/mL) in assay [7].
For `NNC(=O)c1ccncc1` [ISONIAZID], the MIC came to 18.2 µM (≈ 2.5 µg/mL) in [3]; 36.5 µM (≈ 5 µg/mL) in assay [4]; 9.11 µM (≈ 1.25 µg/mL) in [5]; 18.2 µM (≈ 2.5 µg/mL) in assay [6]; 36.5 µM (≈ 5 µg/mL) in [7].
